Reference: paper PMC12865480 (Pharmaceuticals, 2025)
Like-named read-outs stand apart in the source and are kept apart here.

How the values were obtained:
σ1 receptor [1] = molecular target: T1, σ1 receptor (Cavia porcellus, UniProt Q60492); assay: biochemical
σ2 receptor = molecular target: T2, σ2 receptor (Rattus norvegicus, UniProt Q5U3Y7); assay: biochemical; type: binding; conditions: read-out: Ki ± SEM σ2
T2 sequence (Q5U3Y7 1-176): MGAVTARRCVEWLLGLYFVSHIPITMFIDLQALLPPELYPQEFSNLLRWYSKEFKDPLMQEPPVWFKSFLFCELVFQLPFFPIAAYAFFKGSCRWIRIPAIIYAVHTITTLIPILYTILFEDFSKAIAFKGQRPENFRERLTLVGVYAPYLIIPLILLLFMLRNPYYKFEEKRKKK

[2] = molecular target: PCP binding site of the NMDA receptor; assay: PCP binding site assay, radioligand [3H](+)-MK-801, pig brain preparations; conditions: n = 3, values without SEM mean of two experiments
[3] = molecular target: T3, ifenprodil binding site of NMDA receptors with GluN2B subunit (Homo sapiens, UniProt Q05586+Q13224); assay: biochemical; conditions: read-out: Ki ± SEM GluN2B
T3 construct: expressed in transfected cells; host or cells: mouse L(tk-) cells, stably transfected, expression induced with dexamethasone; membrane homogenate

σ1 receptor [4] = molecular target: T1, σ1 receptor
µ-opioid receptor = µ-opioid receptor (Cavia porcellus, UniProt A0ACM8Q262); assay: µ-opioid receptor binding study; conditions: read-out: inhibition of the radioligand binding, µ receptor
δ-opioid receptor = δ-opioid receptor (Rattus norvegicus, UniProt P33533); assay: δ-opioid receptor binding study; conditions: read-out: inhibition of the radioligand binding, δ receptor
κ-opioid receptor = κ-opioid receptor (Cavia porcellus, UniProt P41144); assay: κ-opioid receptor binding study; conditions: read-out: inhibition of the radioligand binding, κ receptor
physchem = conditions: pH 7.4
[5] = after 90 min incubation with mouse liver microsomes and NADPH
[6] = tested on: capsaicin mouse model of neuropathic pain; conditions: dose of 0.25 mg/kg body weight; cited from earlier work
σ1 receptor [7] = molecular target: T1, σ1 receptor; conditions: earlier study; cited from earlier work
[8] = molecular target: PCP binding site of the NMDA receptor; conditions: earlier study; cited from earlier work

T3 sequence (Q13224 27-1484, other chains not shown): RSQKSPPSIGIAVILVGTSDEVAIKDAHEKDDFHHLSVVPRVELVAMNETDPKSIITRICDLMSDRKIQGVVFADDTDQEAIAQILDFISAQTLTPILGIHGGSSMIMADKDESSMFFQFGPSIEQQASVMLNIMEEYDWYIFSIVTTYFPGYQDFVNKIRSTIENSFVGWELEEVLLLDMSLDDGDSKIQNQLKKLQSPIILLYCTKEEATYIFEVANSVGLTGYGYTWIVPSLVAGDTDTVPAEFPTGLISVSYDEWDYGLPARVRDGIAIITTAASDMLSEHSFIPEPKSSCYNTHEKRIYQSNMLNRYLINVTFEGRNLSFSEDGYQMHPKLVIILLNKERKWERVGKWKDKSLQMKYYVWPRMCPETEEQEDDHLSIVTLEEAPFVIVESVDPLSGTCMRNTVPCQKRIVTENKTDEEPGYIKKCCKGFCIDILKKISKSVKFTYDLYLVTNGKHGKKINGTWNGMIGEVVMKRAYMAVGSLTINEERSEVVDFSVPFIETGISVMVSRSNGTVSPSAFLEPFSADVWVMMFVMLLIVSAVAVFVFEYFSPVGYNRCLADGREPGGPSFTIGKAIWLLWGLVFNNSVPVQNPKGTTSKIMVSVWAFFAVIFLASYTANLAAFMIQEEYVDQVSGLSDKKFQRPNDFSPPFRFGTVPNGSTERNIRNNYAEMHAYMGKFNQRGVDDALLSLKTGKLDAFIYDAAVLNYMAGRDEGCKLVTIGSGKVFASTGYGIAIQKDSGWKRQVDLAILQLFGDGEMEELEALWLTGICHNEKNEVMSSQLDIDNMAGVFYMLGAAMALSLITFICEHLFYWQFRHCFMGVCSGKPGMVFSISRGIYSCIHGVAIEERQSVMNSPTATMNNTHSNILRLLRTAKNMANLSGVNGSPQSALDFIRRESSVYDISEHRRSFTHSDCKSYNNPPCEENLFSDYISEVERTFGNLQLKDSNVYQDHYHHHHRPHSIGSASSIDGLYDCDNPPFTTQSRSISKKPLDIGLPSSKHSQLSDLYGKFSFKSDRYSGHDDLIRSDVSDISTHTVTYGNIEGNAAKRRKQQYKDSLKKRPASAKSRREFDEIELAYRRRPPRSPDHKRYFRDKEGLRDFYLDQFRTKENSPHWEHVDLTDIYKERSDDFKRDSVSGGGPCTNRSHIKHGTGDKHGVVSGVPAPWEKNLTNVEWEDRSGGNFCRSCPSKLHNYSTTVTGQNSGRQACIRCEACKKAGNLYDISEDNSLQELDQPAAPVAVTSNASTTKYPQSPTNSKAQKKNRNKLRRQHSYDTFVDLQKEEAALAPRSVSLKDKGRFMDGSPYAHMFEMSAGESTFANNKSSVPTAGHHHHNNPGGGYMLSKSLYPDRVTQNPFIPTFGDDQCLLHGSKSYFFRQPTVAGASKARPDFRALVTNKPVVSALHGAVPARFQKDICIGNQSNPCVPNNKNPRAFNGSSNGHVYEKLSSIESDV
T1 sequence (Q60492 whole entry): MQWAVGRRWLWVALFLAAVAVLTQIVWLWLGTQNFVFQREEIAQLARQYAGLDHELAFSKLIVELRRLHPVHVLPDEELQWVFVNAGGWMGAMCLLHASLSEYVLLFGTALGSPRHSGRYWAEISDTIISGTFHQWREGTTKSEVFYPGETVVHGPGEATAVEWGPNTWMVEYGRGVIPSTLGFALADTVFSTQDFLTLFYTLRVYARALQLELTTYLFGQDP
Sequence of µ-opioid receptor (A0ACM8Q262 1-400): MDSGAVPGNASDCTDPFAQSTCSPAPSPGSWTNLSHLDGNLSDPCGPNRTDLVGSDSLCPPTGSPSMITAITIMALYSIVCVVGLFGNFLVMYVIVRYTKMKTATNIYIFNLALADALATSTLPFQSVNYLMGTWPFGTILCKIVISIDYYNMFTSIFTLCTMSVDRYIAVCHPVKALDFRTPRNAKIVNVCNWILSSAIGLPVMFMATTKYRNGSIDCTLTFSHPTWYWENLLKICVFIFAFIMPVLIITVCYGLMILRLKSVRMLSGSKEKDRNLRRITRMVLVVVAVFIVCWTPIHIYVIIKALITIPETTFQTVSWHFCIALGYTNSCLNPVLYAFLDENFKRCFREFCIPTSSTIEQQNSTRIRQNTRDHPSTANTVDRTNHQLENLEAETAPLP
Sequence of δ-opioid receptor (P33533 whole entry): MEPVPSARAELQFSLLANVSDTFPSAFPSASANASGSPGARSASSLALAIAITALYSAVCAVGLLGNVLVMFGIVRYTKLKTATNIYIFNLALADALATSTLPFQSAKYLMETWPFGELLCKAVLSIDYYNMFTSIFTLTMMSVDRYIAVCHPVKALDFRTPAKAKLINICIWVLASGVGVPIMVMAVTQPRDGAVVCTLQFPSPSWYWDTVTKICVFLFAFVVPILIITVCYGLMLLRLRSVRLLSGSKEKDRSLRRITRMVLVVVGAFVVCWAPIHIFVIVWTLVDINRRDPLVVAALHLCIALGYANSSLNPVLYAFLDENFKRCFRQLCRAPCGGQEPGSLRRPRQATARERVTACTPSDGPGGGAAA
Sequence of κ-opioid receptor (P41144 whole entry): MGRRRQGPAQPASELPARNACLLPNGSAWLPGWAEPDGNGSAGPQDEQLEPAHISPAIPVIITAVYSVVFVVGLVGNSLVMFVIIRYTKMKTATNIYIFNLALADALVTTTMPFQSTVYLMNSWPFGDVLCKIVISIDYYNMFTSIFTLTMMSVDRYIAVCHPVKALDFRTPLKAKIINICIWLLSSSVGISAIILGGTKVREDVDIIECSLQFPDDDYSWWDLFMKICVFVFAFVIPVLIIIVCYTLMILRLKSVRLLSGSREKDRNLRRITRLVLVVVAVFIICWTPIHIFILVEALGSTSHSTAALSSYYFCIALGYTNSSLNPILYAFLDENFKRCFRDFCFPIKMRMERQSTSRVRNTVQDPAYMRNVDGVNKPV

Row | Compound | Ki (σ1 receptor [1]; Ki ± SEM σ1) [nM] | Ki (σ2 receptor) [nM] | Ki [2] [nM] | Ki [3] [nM] | also measured
1 | CC[C@]1(c2ccccc2)OCC[C@H](CCCCNC)O1 (relative stereo) [16b, 4-(trans-2-Ethyl-2-phenyl-1,3-dioxan-4-yl)-N-methylbutan-1-amine] | 107 ± 5 | 311 | > 1000 | > 1000 | 
2 | CCC1(c2ccccc2)OCCC(CCCC(NCc2ccccc2)c2ccccc2)O1 (stereo not drawn) [26b, N-Benzyl-4-(trans-2-ethyl-2-phenyl-1,3-dioxan-4-yl)-1-phenylbutan-1-amine] | 88 ± 43 | 139 | > 1000 | 257 ± 57 | 
3 | CN(CCCC[C@H]1CCO[C@@H](c2ccccc2)O1)Cc1ccccc1 (relative stereo) [18a, N-Benzyl-N-methyl-4-(cis-2-phenyl-1,3-dioxan-4-yl)butan-1-amine] | 6.3 ± 2.4 | 31 ± 3.1 | > 1000 | 261 ± 54 | LLE (ligand-lipophilicity efficiency) (σ1 receptor [4]): 5.71; selectivity for the σ1 receptor against the ifenprodil binding site (σ1 receptor [4]): > 40 fold; σ1:σ2 receptor selectivity (σ1 receptor [4]; σ1 over σ2): 5 fold; inhibition at 1 µM (µ-opioid receptor): 0%; inhibition at 1 µM (δ-opioid receptor): 0%; Ki (σ1 receptor [1]; pKi(σ1)): 6.31 nM; inhibition at 1 µM (κ-opioid receptor): 0%; logD (physchem): 2.49 ± 0.05; Metabolic Stability (5): amount of the remaining unmetabolized parent compound [5]: 48 ± 4%
4 | c1ccc(CNCCC2CCOC(c3ccccc3)O2)cc1 (centres unmarked) [compound 1] |  |  |  |  | analgesic activity [6]: 70%
5 | CC[C@]1(c2ccccc2)OCC[C@H](CCCCN)O1 (relative stereo) [14b, 4-(trans-2-Ethyl-2-phenyl-1,3-dioxan-4-yl)butan-1-amine] | > 1000 | > 1000 | 731 | > 1000 | IC50 (σ1 receptor [1]): > 1000 nM
6 | c1ccc(CNCCCC2CCOC(c3ccccc3)O2)cc1 (centres unmarked) [compound 4] |  |  |  |  | Ki (σ1 receptor [7]): 164 nM
7 | c1ccc(CNCCC2CCCC(c3ccccc3)O2)cc1 (centres unmarked) [compound 3] |  |  |  |  | Ki (σ1 receptor [7]): 6.4 nM
8 | CC[C@]1(c2ccccc2)OC[C@H]([C@@H]2CCCCN2)O1 [etoxadrol] |  |  |  |  | Ki [8]: 22 nM
9 | c1ccc(CNC(CCC[C@H]2CCO[C@@H](c3ccccc3)O2)c2ccccc2)cc1 (relative stereo) [26a, N-Benzyl-1-phenyl-4-(cis-2-phenyl-1,3-dioxan-4-yl)butan-1-amine] | 918 | 907 | > 1000 | > 1000 | 
10 | CCC1(c2ccccc2)OCCC(CCCC(NC)c2ccccc2)O1 (stereo not drawn) [25b, 4-(trans-2-Ethyl-2-phenyl-1,3-dioxan-4-yl)-N-methyl-1-phenylbutan-1-amine] | 58 ± 8.2 | 255 | > 1000 | 190 ± 39 | 
11 | CNC(CCC[C@H]1CCO[C@@H](c2ccccc2)O1)c1ccccc1 (relative stereo) [25a, N-Methyl-1-phenyl-4-(cis-2-phenyl-1,3-dioxan-4-yl)butan-1-amine] | 144 ± 26 | > 1000 | > 1000 | 716 | 
12 | NCCCC[C@H]1CCO[C@@H](c2ccccc2)O1 (relative stereo) [14a, 4-(cis-2-Phenyl-1,3-dioxan-4-yl)butan-1-amine] | > 1000 | > 1000 | > 1000 | > 1000 | IC50 (σ1 receptor [1]): > 1000 nM
